Test results taken from ChEMBL document CHEMBL1147986, “Minimum structure requirement of immunomodulatory glycolipids for predominant Th2 cytokine induction and the discovery of non-linear phytosphingosine analogs” (2007).

Assays:
[1] = Induction of IL4 secretion in C57BL/6 mouse spleen cells at 100 ng/ml after 72 hrs relative to OCH; format: functional
[2] = Induction of IFN gamma secretion in C57BL/6 mouse spleen cells at 100 ng/ml after 72 hrs relative to OCH; format: functional

Question: Which Activity [1] does the source give for `CCCCCCCCCCCCCCCCCCCCCCCC(=O)N[C@@H](CO[C@H]1O[C@H](CO)[C@H](O)[C@H](O)[C@H]1O)[C@H](O)[C@H](O)CCCCC` here?
Answer: 100%

Question: What about the Activity [2] of the same compound?
Answer: 100%

Question: For `CCCCCCCCCCCCCCCCCCCCCCCC(=O)N[C@@H](CO[C@H]1O[C@H](CO)[C@H](O)[C@H](O)[C@H]1O)[C@H](O)[C@H](O)CC`, which Activity [1] is on record?
Answer: 102%

Question: And the Activity [2]?
Answer: 81%

Question: For `CCCCCCCCCCCCCCCCCCCCCCCC(=O)N[C@@H](CO[C@H]1O[C@H](CO)[C@H](O)[C@H](O)[C@H]1O)[C@H](O)[C@H](O)CCC`, which Activity [1] is on record?
Answer: 105%

Question: And the Activity [2]?
Answer: 96%

Question: What does the source list for `CCCCCCCCCCCCCCCCCCCCCCCCCCCC(=O)N[C@@H](CO[C@H]1O[C@H](CO)[C@H](O)[C@H](O)[C@H]1O)[C@H](O)[C@H](O)CCCCC`?
Answer: Activity [1]: 178%; Activity [2]: 761%

Question: With `CCCCCCCCCCCCCCCCCCCCCCCC(=O)N[C@@H](CO[C@H]1O[C@H](CCl)[C@H](O)[C@H](O)[C@H]1O)[C@H](O)[C@H](O)CC1CCCC1` as the compound, how does the Activity [1] read?
Answer: 98%

Question: What about the Activity [2] of the same compound?
Answer: 74%

Question: Which results are given for `CCCCCCCCCCCCCCCCCCCCCCCC(=O)N[C@@H](CO[C@H]1O[C@H](CCl)[C@H](O)[C@H](O)[C@H]1O)[C@H](O)[C@H](O)Cc1ccccc1`?
Answer: Activity [1]: 211%; Activity [2]: 284%

Question: With `CCCCCCCCCCCCCCCCCCCC(=O)N[C@@H](CO[C@H]1O[C@H](CO)[C@H](O)[C@H](O)[C@H]1O)[C@H](O)[C@H](O)CCCCC` as the compound, how does the Activity [1] read?
Answer: 6%

Question: And the Activity [2]?
Answer: 9%

Question: With `CCCCCCCCCCCCCCCCCCCCCCCC(=O)N[C@@H](CO[C@H]1O[C@H](CO)[C@H](O)[C@H](O)[C@H]1O)[C@H](O)[C@H](O)CCCC` as the compound, how does the Activity [1] read?
Answer: 115%

Question: What about the Activity [2] of the same compound?
Answer: 112%

Question: With `CCCCCCCCCCCCCCCCCCCCCCCCCC(=O)N[C@@H](CO[C@H]1O[C@H](CO)[C@H](O)[C@H](O)[C@H]1O)[C@H](O)[C@H](O)CCCCC` as the compound, how does the Activity [1] read?
Answer: 129%

Question: What about the Activity [2] of the same compound?
Answer: 504%

Question: What does the source list for `CCCCCCCCCCCCCCCCCCCCCCC(=O)N[C@@H](CO[C@H]1O[C@H](CO)[C@H](O)[C@H](O)[C@H]1O)[C@H](O)[C@H](O)CCCCC`?
Answer: Activity [1]: 103%; Activity [2]: 93%

Question: Which results are given for `CCCCCCCCCCCCCCCCCCCCCCCCC(=O)N[C@@H](CO[C@H]1O[C@H](CO)[C@H](O)[C@H](O)[C@H]1O)[C@H](O)[C@@H](O)CCCCC`?
Answer: Activity [1]: 154%; Activity [2]: 103%

Question: What does the source list for `CCCCCCCCCCCCCCCCCCCCCC(=O)N[C@@H](CO[C@H]1O[C@H](CO)[C@H](O)[C@H](O)[C@H]1O)[C@H](O)[C@H](O)CCCCC`?
Answer: Activity [1]: 51%; Activity [2]: 46%

Question: Which Activity [1] does the source give for `CCCCCCCCCCCCCCCCCCCCCCCCCC(=O)N[C@@H](CO[C@H]1O[C@H](CO)[C@H](O)[C@H](O)[C@H]1O)[C@H](O)[C@H](O)CCCCCCCCCCCCCC` [RGI-7000] here?
Answer: 128%

Question: What about the Activity [2] of the same compound?
Answer: 569%
